The NIST ThermoML archive (doi:10.1021/je800921n)

Experiments:
[1] = Crystal; Differential scanning calorimeter
[2] = Molar enthalpy of transition or fusion; conditions: Crystal; Differential scanning calorimeter

O=C(O)CCCCCCCC(=O)O [1,9-nonanedioic acid]
Normal melting temperature [1]: 102.5 °C | Molar enthalpy of transition or fusion [2]: 8.44 kcal/mol
